These results are taken from patent publication US8470964B2, “Peptides derived from NCAM (FGLs)” (Enkam Pharmaceuticals A/S, priority 2007, dated 2013).

This experiment has as its system (25-35) β-amyloid peptide fragment induced cognitive deficits model in rats. The experiment is described as follows: (25-35) β-amyloid induced cognitive deficits, intranasal administration, SRT. To be noted: intranasal, 15 daily doses from day 7 to 21, test 24 hrs after the last administration. Format: in vivo, rat. The text has this: FIG. 9. Effects of intranasal administration of FGLs on the β-amyloid neurotoxicity induced deficit on performance in the Social Recognition Test. Rats received an intranasal administration of FGLs at the stated doses or vehicle daily at days 7 to 21 after i.c.v. administration of the (25-35) β-amyloid (A-β) fragment. 8-10 animals per group. Results are expressed as Means and SEM of Recognition Ratio and analyzed by one-sample t-test: **p<0.05.
In this study, the (25-35) β-amyloid peptide fragment induced cognitive deficits model in rats was used to investigate the dose-response (0.08, 0.32 or 1.28 mg/kg) effect of FGLs administered intranasally daily for 15 doses from day 7 to day 21 post β-amyloid peptide i.c.v. injection. The social memory performance was evaluated using the SRT, 22 days after the β-amyloid injection. A statistically significant impairment of short-term memory was observed as a consequence of the (25-35) β-amyloid neurotoxicity in the rats receiving the (25-35) β-amyloid fragment plus vehicle.

“EVYVVAENQQGKSKA [FGL, reference compound]”: the “minimum effective dose, impaired short-term memory (SRT)” value stood at 1.28 mg/kg.
